The text below walks through data of patent US20230265094A1, “RIPK1 INHIBITORS AND METHODS OF USE” (Merck Sharp & Dohme LLC, priority 2020, published 2023).

pEC50: −log10 of the molar value. Structures can show the parent of a compound that is named as a salt.

The target in this assay is T1, RIPK1 (Homo sapiens, UniProt Q13546).
T1 construct: recombinant GST-RIPK1 kinase domain (residues 1-327) enzyme produced from baculovirus-transfected Sf21 cells; host or cells: baculovirus-transfected Sf21 insect cells
T1 sequence (Q13546 1-327): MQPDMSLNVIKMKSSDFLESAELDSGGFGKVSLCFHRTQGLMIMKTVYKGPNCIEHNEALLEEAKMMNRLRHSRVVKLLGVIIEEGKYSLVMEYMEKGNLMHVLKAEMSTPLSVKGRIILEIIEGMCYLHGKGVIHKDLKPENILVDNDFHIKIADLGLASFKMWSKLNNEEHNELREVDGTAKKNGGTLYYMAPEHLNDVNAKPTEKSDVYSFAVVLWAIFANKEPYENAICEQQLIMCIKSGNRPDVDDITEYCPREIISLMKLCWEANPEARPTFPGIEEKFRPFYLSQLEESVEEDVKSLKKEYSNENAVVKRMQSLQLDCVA
Description: RIPK1-ADP-Glo enzymatic assay. The format is biochemical. The note with it: ADP-Glo luminescent ADP detection; 25 nM GST-RIPK1 kinase domain (residues 1-327), 300 μM ATP, dephosphorylated-MBP substrate; 30 min pre-incubation, 150 min reaction. As to the method:
RIPK1-ADP-Glo Enzymatic Assay
The enzymatic activity of RIPK1 is measured using an assay derived from ADP-Glo kit (Promega™), which provides a luminescent-based ADP detection system. Specifically, the ADP generated by RIPK1 kinase is proportionally detected as luminescent signals in a homogenous fashion. In this context, the assessment of the inhibitory effect of small molecules (EC50) is measured by the effectiveness of the compounds to inhibit the ATP to ADP conversion by RIPK1.
In this assay, the potency (EC50) of each compound was determined from a ten-point (1:3 serial dilution; top compound concentration of 100000 nM) titration curve using the following outlined procedure. To each well of a white ProxiPlus 384 well-plate, 30 nL of compound (1% DMSO in final assay volume of 3 μL) was dispensed, followed by the addition of 2 μL of 1×assay buffer (25 mM Hepes 7.3, 20 mM MgCl2, 50 mM NaCl, 1 mM DTT, 0.005% Tween20, and 0.02% BSA) containing 37.5 nM of GST-RIPK1 (recombinant GST-RIPK1 kinase domain (residues 1-327) enzyme produced from baculovirus-transfected Sf21 cells: MW=62 kDa). Plates were placed in an ambient temperature humidified chamber for a 30 minutes pre-incubation with compound. Subsequently, each reaction was initiated by the addition of 1 μL 1×assay buffer containing 900 μM ATP and […] dephosphorylated-MBP substrate. The final reaction in each well of 3 μL consists of 25 nM of GST-RIPK1, 300 μM ATP, and 3 μM dephosphorylated-MBP. Kinase reactions were allowed to proceed for 150 minutes prior to adding ADP-Glo reagents per Promega's outlined kit protocol. Dose-response curves were generated by plotting percent effect (% product conversion; Y-axis) vs. Log10 compound concentrations (X-axis). EC50 values were calculated using a non-linear regression, four-parameters sigmoidal dose-response model.

`Cc1noc(C2CN(C(=O)N3N=CC[C@H]3c3cc(F)cc(F)c3)C2)n1` [Example 1.55, (S)-(5-(3,5-difluorophenyl)-4,5-dihydro-1H-pyrazol-1-yl)(3-(3-methyl-1,2,4-oxadiazol-5-yl)azetidin-1-yl)methanone] gave a pEC50 of 6.76.
Under `O=C(N1CC(S(=O)(=O)c2ccc(Br)cc2)C1)N1N=CC[C@H]1c1cc(F)cc(F)c1` [Example 1.57, (S)-(3-((4-bromophenyl)sulfonyl)azetidin-1-yl)(5-(3,5-difluorophenyl)-4,5-dihydro-1H-pyrazol-1-yl)methanone] stands 7.91.
To `O=C(N1CC(Oc2ccccn2)C1)N1N=CC[C@H]1c1cc(F)cc(F)c1` [Example 1.58, (S)-(5-(3,5-difluorophenyl)-4,5-dihydro-1H-pyrazol-1-yl)(3-(pyridin-2-yloxy)azetidin-1-yl)methanone] belongs 5.86; to `O=C(N1CC(OC2CCCCC2)C1)N1N=CC[C@H]1c1cc(F)cc(F)c1` [Example 1.59, (S)-(3-(cyclohexyloxy)azetidin-1-yl)(5-(3,5-difluorophenyl)-4,5-dihydro-1H-pyrazol-1-yl)methanone], 6.61; to `O=C(N1CCC1)N1N=CC[C@H]1c1cc(F)cc(F)c1` [Example 1.60, (S)-azetidin-1-yl(5-(3,5-difluorophenyl)-4,5-dihydro-1H-pyrazol-1-yl)methanone], 7.19.
Under `N#Cc1ccc(OC2CN(C(=O)N3N=CC[C@H]3c3cc(F)cc(F)c3)C2)cn1` [Example 1.61, (S)-5-((1-(5-(3,5-difluorophenyl)-4,5-dihydro-1H-pyrazole-1-carbonyl)azetidin-3-yl)oxy)picolinonitrile] stands 7.58; under `COC1CN(C(=O)N2N=CC[C@H]2c2cc(F)cc(F)c2)C1` [Example 2.1, (S)-(5-(3,5-difluorophenyl)-4,5-dihydro-1H-pyrazol-1-yl)(3-methoxyazetidin-1-yl)methanone], 7.96.
Molecule `CCOC1CN(C(=O)N2N=CC[C@H]2c2cc(F)cc(F)c2)C1` [Example 2.2, (S)-(5-(3,5-difluorophenyl)-4,5-dihydro-1H-pyrazol-1-yl)(3-ethoxyazetidin-1-yl)methanone] had a pEC50 of 7.57.
Under `O=C(N1CC(Nc2ccccc2)C1)N1N=CC[C@H]1c1cc(F)cc(F)c1` [Example 2.3, (S)-(5-(3,5-difluorophenyl)-4,5-dihydro-1H-pyrazol-1-yl)(3-(phenylamino)azetidin-1-yl)methanone] stands 8.17; under `O=C(N1CC(Oc2ccccc2)C1)N1N=CC[C@H]1c1ccc(Cl)cc1` [Example 2.6, (S)-(5-(4-chlorophenyl)-4,5-dihydro-1H-pyrazol-1-yl)(3-phenoxyazetidin-1-yl)methanone], 8.02; under `CC(C)C1(O)CN(C(=O)N2N=CC[C@H]2c2ccc(Cl)cc2)C1` [Example 2.7, (S)-(5-(4-chlorophenyl)-4,5-dihydro-1H-pyrazol-1-yl)(3-hydroxy-3-isopropylazetidin-1-yl)methanone], 5.29.
As to `O=C(N1CC(O)(c2ccccc2)C1)N1N=CC[C@H]1c1ccc(Cl)cc1` [Example 2.8, (S)-(5-(4-chlorophenyl)-4,5-dihydro-1H-pyrazol-1-yl)(3-hydroxy-3-phenylazetidin-1-yl)methanone], the pEC50 was 5.61.
Under `O=C(N1CC(Nc2ccccc2)C1)N1N=CC[C@H]1c1ccc(Cl)cc1` [Example 2.9, (S)-(5-(4-chlorophenyl)-4,5-dihydro-1H-pyrazol-1-yl)(3-(phenylamino)azetidin-1-yl)methanone] stands 7.64.
To `O=C(N1CC(Cc2ccccc2)C1)N1N=CC[C@H]1c1ccc(Cl)cc1` [Example 2.10, (S)-(3-benzylazetidin-1-yl)(5-(4-chlorophenyl)-4,5-dihydro-1H-pyrazol-1-yl)methanone] belongs 7.94; to `O=C(N1CC(O)(C(F)(F)F)C1)N1N=CC[C@H]1c1ccc(Cl)cc1` [Example 2.11, (S)-(5-(4-chlorophenyl)-4,5-dihydro-1H-pyrazol-1-yl)(3-hydroxy-3-(trifluoromethyl)azetidin-1-yl)methanone], 6.24.
`CC(C)OC1CN(C(=O)N2N=CC[C@H]2c2ccc(Cl)cc2)C1` [Example 2.12, (S)-(5-(4-chlorophenyl)-4,5-dihydro-1H-pyrazol-1-yl)(3-isopropoxyazetidin-1-yl)methanone] showed a pEC50 of 7.97.
The molecule `COC1(C)CN(C(=O)N2N=CC[C@H]2c2ccc(Cl)cc2)C1` [Example 2.13, (S)-(5-(4-chlorophenyl)-4,5-dihydro-1H-pyrazol-1-yl)(3-methoxy-3-methylazetidin-1-yl)methanone] had a negative logarithm of the EC50 (pEC50) of 7.19.
In the case of `O=C(N1CC(Oc2ccccc2)C1)N1N=CC[C@H]1c1cccnc1` [Example 2.14, (S)-(3-phenoxyazetidin-1-yl)(5-(pyridin-3-yl)-4,5-dihydro-1H-pyrazol-1-yl)methanone], the pEC50 was 7.69.
Under `O=C(N1CC(Oc2ccccc2)C1)N1N=CC[C@@H]1c1cccnc1` [Example 2.15, (R)-(3-phenoxyazetidin-1-yl)(5-(pyridin-3-yl)-4,5-dihydro-1H-pyrazol-1-yl)methanone] stands 7.02; under `O=C(N1CC(Oc2ccccc2)C1)N1N=CC[C@H]1C12CCC(CC1)C2` [Example 2.16, ((5S)-5-(bicyclo[2.2.1]heptan-1-yl)-4,5-dihydro-1H-pyrazol-1-yl)(3-phenoxyazetidin-1-yl)methanone], 7.03; under `CN(c1ccccc1)C1CN(C(=O)N2N=CC[C@H]2c2cc(F)cc(F)c2)C1` [Example 2.17, (S)-(5-(3,5-difluorophenyl)-4,5-dihydro-1H-pyrazol-1-yl)(3-(methyl(phenyl)amino)azetidin-1-yl)methanone, TFA salt], 8.15.
To `C[C@H]1[C@@H](Oc2ccc(F)cc2)CN1C(=O)N1N=CC[C@H]1c1cncc(F)c1` [Example 2.18, ((2S,3S)-3-(4-fluorophenoxy)-2-methylazetidin-1-yl)((S)-5-(5-fluoropyridin-3-yl)-4,5-dihydro-1H-pyrazol-1-yl)methanone] belongs 8.00; to `Cc1ncc([C@@H]2CC=NN2C(=O)N2C[C@H](Oc3ccc(F)cc3)[C@@H]2C)cc1F` [Example 2.19, ((S)-5-(5-fluoro-6-methylpyridin-3-yl)-4,5-dihydro-1H-pyrazol-1-yl)((2S,3S)-3-(4-fluorophenoxy)-2-methylazetidin-1-yl)methanone], 7.91.
To `C[C@@H]1[C@H](Oc2ccc(F)cc2)CN1C(=O)N1N=CC[C@H]1c1ccc(Cl)cc1` [Example 2.20, ((S)-5-(4-chlorophenyl)-4,5-dihydro-1H-pyrazol-1-yl)((2R,3R)-3-(4-fluorophenoxy)-2-methylazetidin-1-yl)methanone] belongs 7.59; to `C[C@@H]1[C@H](Oc2ccc(F)cc2)CN1C(=O)N1N=CC[C@H]1c1cc(F)cc(F)c1` [Example 2.21, ((S)-5-(3,5-difluorophenyl)-4,5-dihydro-1H-pyrazol-1-yl)((2R,3R)-3-(4-fluorophenoxy)-2-methylazetidin-1-yl)methanone], 7.41.
For `C[C@@H]1[C@@H](Oc2ccc(F)cc2)CN1C(=O)N1N=CC[C@H]1c1cncc(F)c1` [Example 2.22, ((2R,3S)-3-(4-fluorophenoxy)-2-methylazetidin-1-yl)((S)-5-(5-fluoropyridin-3-yl)-4,5-dihydro-1H-pyrazol-1-yl)methanone], the pEC50 is 8.12.
For `Cc1ncc([C@@H]2CC=NN2C(=O)N2C[C@H](Oc3ccc(F)cc3)[C@H]2C)cc1F` [Example 2.23, ((S)-5-(5-fluoro-6-methylpyridin-3-yl)-4,5-dihydro-1H-pyrazol-1-yl)((2R,3S)-3-(4-fluorophenoxy)-2-methylazetidin-1-yl)methanone], the pEC50 is 8.00.
Under `C[C@@H]1[C@@H](Oc2ccc(F)cc2)CN1C(=O)N1N=CC[C@H]1c1cncc(C#N)c1` [Example 2.24, 5-((S)-1-((2R,3S)-3-(4-fluorophenoxy)-2-methylazetidine-1-carbonyl)-4,5-dihydro-1H-pyrazol-5-yl)nicotinonitrile] stands 7.94.
